Measurements: the supplement of paper PMC13207355
Where a name gives a salt, the structure may show the parent alone.

Tests used:
Conditions in all cases: exposure time: 72 h
E31 [1] = patient-derived glioblastoma stem cells of proneural subtype; test: surviving fraction (nuclei count normalised to DMSO); higher = more cells surviving (less toxic)
E21 [2] = patient-derived glioblastoma stem cells of mesenchymal subtype; test: as above
E13 [3] = patient-derived glioblastoma stem cells of classical subtype; test: as above
E28 [4] = patient-derived glioblastoma stem cells of classical subtype; test: as above
FT3469 [5] = normal neural stem cell line; test: as above
E34 [6] = patient-derived glioblastoma stem cells of proneural subtype; test: as above
E57 [7] = patient-derived glioblastoma stem cells of mesenchymal subtype; test: as above
E31 [8] = test: phenotypic distance (Euclidean, principal components) from DMSO controls (arbitrary units); higher = stronger morphological change
E21 [9] = test: as above
E13 [10] = test: as above
E28 [11] = test: as above
FT3469 [12] = test: as above
E34 [13] = test: as above
E57 [14] = test: as above
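For phenotypic distance (Euclidean, principal components) from DMSO controls in this document: cell Painting imaging in 384-well plates, CellProfiler features reduced to at least 20 principal components, Euclidean distance versus same-plate DMSO vehicle wells (0.1% v/v), median over six images per well.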
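For surviving fraction (nuclei count normalised to DMSO) in this document: nuclei counted by high-content imaging of Hoechst-stained cells in laminin-coated 384-well plates, relative to 0.1% DMSO vehicle wells, with staurosporine as cell-death control.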

COc1ccc(/C=C\c2cc(OC)c(OC)c(OC)c2)cc1OP(=O)(O)O [Fosbretabulin Disodium]
Conditions | phenotypic distance | surviving fraction
E13 [3], 4.1 nM | – | 0.8
E13 [3], 12.3 nM | – | 0.905
E13 [3], 37 nM | – | 0.361
E13 [3], 111.1 nM | – | 0.241
E13 [3], 333.3 nM | – | 0.171
E13 [3], 1000 nM | – | 0.175
E13 [3], 3000 nM | – | 0.0977
E13 [10], 4.1 nM | 1.22 | –
E13 [10], 12.3 nM | 2.08 | –
E13 [10], 37 nM | 5.08 | –
E13 [10], 111.1 nM | 4.95 | –
E13 [10], 333.3 nM | 5.64 | –
E13 [10], 1000 nM | 8.31 | –
E13 [10], 3000 nM | 7.96 | –
E21 [2], 4.1 nM | – | 0.889
E21 [2], 12.3 nM | – | 0.951
E21 [2], 37 nM | – | 0.847
E21 [2], 111.1 nM | – | 0.415
E21 [2], 333.3 nM | – | 0.176
E21 [2], 1000 nM | – | 0.101
E21 [2], 3000 nM | – | 0.0981
E21 [9], 4.1 nM | 0.897 | –
E21 [9], 12.3 nM | 0.887 | –
E21 [9], 37 nM | 1.98 | –
E21 [9], 111.1 nM | 5.67 | –
E21 [9], 333.3 nM | 6.69 | –
E21 [9], 1000 nM | 8.1 | –
E21 [9], 3000 nM | 6.31 | –
E28 [4], 4.1 nM | – | 1.09
E28 [4], 12.3 nM | – | 1
E28 [4], 37 nM | – | 0.905
E28 [4], 111.1 nM | – | 0.938
E28 [4], 333.3 nM | – | 0.894
E28 [4], 1000 nM | – | 0.41
E28 [4], 3000 nM | – | 0.293
E28 [11], 4.1 nM | 0.427 | –
E28 [11], 12.3 nM | 0.345 | –
E28 [11], 37 nM | 0.559 | –
E28 [11], 111.1 nM | 0.674 | –
E28 [11], 333.3 nM | 1.52 | –
E28 [11], 1000 nM | 3.18 | –
E28 [11], 3000 nM | 3.86 | –
E31 [1], 4.1 nM | – | 0.927
E31 [1], 12.3 nM | – | 1.01
E31 [1], 37 nM | – | 0.765
E31 [1], 111.1 nM | – | 0.917
E31 [1], 333.3 nM | – | 0.54
E31 [1], 1000 nM | – | 0.123
E31 [1], 3000 nM | – | 0.0441
E31 [8], 4.1 nM | 0.483 | –
E31 [8], 12.3 nM | 0.846 | –
E31 [8], 37 nM | 0.502 | –
E31 [8], 111.1 nM | 0.681 | –
E31 [8], 333.3 nM | 1.6 | –
E31 [8], 1000 nM | 4.42 | –
E31 [8], 3000 nM | 7.65 | –
E34 [6], 4.1 nM | – | 0.966
E34 [6], 12.3 nM | – | 0.962
E34 [6], 37 nM | – | 1.06
E34 [6], 111.1 nM | – | 0.942
E34 [6], 333.3 nM | – | 0.86
E34 [6], 1000 nM | – | 0.521
E34 [6], 3000 nM | – | 0.348
E34 [13], 4.1 nM | 0.709 | –
E34 [13], 12.3 nM | 0.552 | –
E34 [13], 37 nM | 0.5 | –
E34 [13], 111.1 nM | 0.935 | –
E34 [13], 333.3 nM | 1.29 | –
E34 [13], 1000 nM | 3.14 | –
E34 [13], 3000 nM | 7.56 | –
E57 [7], 4.1 nM | – | 0.953
E57 [7], 12.3 nM | – | 0.934
E57 [7], 37 nM | – | 0.943
E57 [7], 111.1 nM | – | 0.986
E57 [7], 333.3 nM | – | 0.604
E57 [7], 1000 nM | – | 0.077
E57 [7], 3000 nM | – | 0.0927
E57 [14], 4.1 nM | 0.784 | –
E57 [14], 12.3 nM | 0.887 | –
E57 [14], 37 nM | 0.575 | –
E57 [14], 111.1 nM | 1.01 | –
E57 [14], 333.3 nM | 2.68 | –
E57 [14], 1000 nM | 5.08 | –
E57 [14], 3000 nM | 5.09 | –
FT3469 [5], 4.1 nM | – | 0.907
FT3469 [5], 12.3 nM | – | 1.03
FT3469 [5], 37 nM | – | 1.03
FT3469 [5], 111.1 nM | – | 0.976
FT3469 [5], 333.3 nM | – | 0.745
FT3469 [5], 1000 nM | – | 0.503
FT3469 [5], 3000 nM | – | 0.346
FT3469 [12], 4.1 nM | 0.525 | –
FT3469 [12], 12.3 nM | 0.86 | –
FT3469 [12], 37 nM | 0.542 | –
FT3469 [12], 111.1 nM | 0.517 | –
FT3469 [12], 333.3 nM | 1.3 | –
FT3469 [12], 1000 nM | 2.97 | –
FT3469 [12], 3000 nM | 3.41 | –

N=C(N)c1ccc(-c2ccc(-c3ccc(C(=N)N)cc3)o2)cc1 [Furamidine dihydrochloride]
Conditions | phenotypic distance | surviving fraction
E13 [3], 4.1 nM | – | 0.977
E13 [3], 12.3 nM | – | 0.987
E13 [3], 37 nM | – | 0.954
E13 [3], 111.1 nM | – | 0.919
E13 [3], 333.3 nM | – | 1.02
E13 [3], 1000 nM | – | 1.1
E13 [3], 3000 nM | – | 1.07
E13 [10], 4.1 nM | 0.262 | –
E13 [10], 12.3 nM | 0.642 | –
E13 [10], 37 nM | 0.687 | –
E13 [10], 111.1 nM | 0.7 | –
E13 [10], 333.3 nM | 1.05 | –
E13 [10], 1000 nM | 1.58 | –
E13 [10], 3000 nM | 2.41 | –
E21 [2], 4.1 nM | – | 0.927
E21 [2], 12.3 nM | – | 0.912
E21 [2], 37 nM | – | 1
E21 [2], 111.1 nM | – | 1.01
E21 [2], 333.3 nM | – | 1.02
E21 [2], 1000 nM | – | 1.03
E21 [2], 3000 nM | – | 0.975
E21 [9], 4.1 nM | 2.21 | –
E21 [9], 12.3 nM | 0.291 | –
E21 [9], 37 nM | 0.446 | –
E21 [9], 111.1 nM | 0.567 | –
E21 [9], 333.3 nM | 1.09 | –
E21 [9], 1000 nM | 1.6 | –
E21 [9], 3000 nM | 3.09 | –
E28 [4], 4.1 nM | – | 0.932
E28 [4], 12.3 nM | – | 1.02
E28 [4], 37 nM | – | 0.995
E28 [4], 111.1 nM | – | 1.04
E28 [4], 333.3 nM | – | 0.901
E28 [4], 1000 nM | – | 1.05
E28 [4], 3000 nM | – | 0.861
E28 [11], 4.1 nM | 0.942 | –
E28 [11], 12.3 nM | 0.731 | –
E28 [11], 37 nM | 0.378 | –
E28 [11], 111.1 nM | 0.509 | –
E28 [11], 333.3 nM | 0.894 | –
E28 [11], 1000 nM | 1.65 | –
E28 [11], 3000 nM | 3.07 | –
E31 [1], 4.1 nM | – | 0.988
E31 [1], 12.3 nM | – | 0.965
E31 [1], 37 nM | – | 0.911
E31 [1], 111.1 nM | – | 1.08
E31 [1], 333.3 nM | – | 1.01
E31 [1], 1000 nM | – | 1.04
E31 [1], 3000 nM | – | 1.2
E31 [8], 4.1 nM | 0.537 | –
E31 [8], 12.3 nM | 0.559 | –
E31 [8], 37 nM | 0.53 | –
E31 [8], 111.1 nM | 0.588 | –
E31 [8], 333.3 nM | 0.79 | –
E31 [8], 1000 nM | 1.64 | –
E31 [8], 3000 nM | 2.69 | –
E34 [6], 4.1 nM | – | 0.983
E34 [6], 12.3 nM | – | 1.13
E34 [6], 37 nM | – | 1.1
E34 [6], 111.1 nM | – | 1.21
E34 [6], 333.3 nM | – | 1.2
E34 [6], 1000 nM | – | 1.09
E34 [6], 3000 nM | – | 1.2
E34 [13], 4.1 nM | 0.516 | –
E34 [13], 12.3 nM | 0.962 | –
E34 [13], 37 nM | 0.515 | –
E34 [13], 111.1 nM | 0.866 | –
E34 [13], 333.3 nM | 1.16 | –
E34 [13], 1000 nM | 2.15 | –
E34 [13], 3000 nM | 3.96 | –
E57 [7], 4.1 nM | – | 0.99
E57 [7], 12.3 nM | – | 0.991
E57 [7], 37 nM | – | 1.08
E57 [7], 111.1 nM | – | 0.988
E57 [7], 333.3 nM | – | 0.981
E57 [7], 1000 nM | – | 0.956
E57 [7], 3000 nM | – | 0.828
E57 [14], 4.1 nM | 0.435 | –
E57 [14], 12.3 nM | 0.369 | –
E57 [14], 37 nM | 0.461 | –
E57 [14], 111.1 nM | 0.581 | –
E57 [14], 333.3 nM | 0.809 | –
E57 [14], 1000 nM | 1.18 | –
E57 [14], 3000 nM | 2 | –
FT3469 [5], 4.1 nM | – | 0.904
FT3469 [5], 12.3 nM | – | 0.883
FT3469 [5], 37 nM | – | 0.856
FT3469 [5], 111.1 nM | – | 0.949
FT3469 [5], 333.3 nM | – | 1.12
FT3469 [5], 1000 nM | – | 1
FT3469 [5], 3000 nM | – | 1
FT3469 [12], 4.1 nM | 0.956 | –
FT3469 [12], 12.3 nM | 0.513 | –
FT3469 [12], 37 nM | 0.833 | –
FT3469 [12], 111.1 nM | 0.595 | –
FT3469 [12], 333.3 nM | 0.891 | –
FT3469 [12], 1000 nM | 1.39 | –
FT3469 [12], 3000 nM | 3.24 | –
